Holding throughout (assay type): cell-based, human
In assay [1] the test system is Hay1. The assay can be described thus: Zeocin sensitivity of Hay1 (standard titration curve, selection). As for the experimental part: In preparation for the establishment of the frt insert line, the sensitivity of Hay1 to zeocin was tested.
The plasmid pFrt/lac/Zeo (Invitrogen) can be transfected into Hay1 using Lipofectamine 2000. After 48 hrs, resistant cells can be selected by changing to medium containing 75 μg/ml Zeocin (Invitrogen). Non-resistant cells are dead in about seven days. An efficiency of about 1×10^−5/μg is expected. Approximately ten individual transfectants can be selected and tested for expression of lacZ. Copy number of the plasmid can be evaluated via Southern blotting. Transfectants with single insertions can be chosen for further analysis. To examine the behavior of the insert during differentiation, cells can be subjected to EB formation, followed by culture in Med3, 5% defined calf serum for one week. They can be reevaluated for lacZ expression. Since Zeo selection can be maintained, it is expected that all surviving cells will retain lacZ expression. It is a general strategy to maintain selective pressure on the inserts to insure expression of the surrounding DNA, as has been successfully employed in a number of other studies (Zweigerdt et al., (2001) Cytotherapy 5, 399-413; Liu et al. (2004) Stem Cells Dev. 13, 636-645; Schuldiner et al., (2003) Stem Cells 21, 257-265).

Assay [2] relates to Hay1. The assay can be described thus: Growth of Hay1 in defined medium after removal of individual peptide hormone factors. Conditions: for effect on growth of removal of the factor from the medium: Hay1, defined feeder free medium, factor removed individually. As for the experimental part:
The use of feeder layers complicates the use of stem cells for a variety of applications. Use of feeder layers dramatically raise the background in standard in vitro toxicology assays, such as MTT or resazurin reductions confounding the results. Hay1 can be grown routinely under defined conditions. Standard medium consists of KO-DMEM, 15% KO-serum replacement, glutamine, nonessential amino acids, β-MeSH, 10 ng/ml oncostatin M, 10 ng/ml SCF and 25 ng/ml bFGF. Using this medium, Hay1 continues to express the markers listed above and doubles approximately every three to four days. This is slightly slower than their doubling on feeder layers.
Growth of Hay1 was examined under various conditions known to affect stem cell growth and differentiation. Mouse and human EG cells require a source of gp130 signaling for growth in culture (Shamblott et al. (1998); Koshimuzu et al. (1996) Development 122, 1235-1242).
(§1) Since Oct 4 controls Nanog expression (Rodda et al. (2005)), it was expected that induction of Oct 4 would also raise nanog, and this is what was observed.

For a further assay, the system named is Oct 4 and Nanog. The assay can be described thus: Oct 4 and Nanog expression in Hay1 by real time RT-QPCR.
Excerpt: While surface markers and alkaline phosphatase are convenient markers for stem cells, it has become clear that expression of the transcription factors Oct 4 and Nanog are fundamental characteristics of stem cells (Rodda et al. (2005) J. Biol. Chem. 280, 24731-24737; Chambers et al. (2003) Cell 113, 643-655). Hay1 was examined for expression of these factors using real time RT-QPCR. […] Biomol. Screen. 5, 249-254), a medium that is a mixture of Weymouth's MAB, Ham's F12 and William's E. It also contains 5% defined calf serum (Hyclone). Actin was used as a standard.
as §1

Another assay relates to ACTHep1-6. The assay can be described thus: Reversal of transformation of ACTHep1-6 by ponasterone A induced dominant negative RAS. To be noted: 10 μM ponasterone A in Med3, 5% serum, 10,000 cells per well. The text has this: Identification of a human hepatocyte cell line starting from human EG cells using sequential expression of an activated and a dominant negative transforming gene can be performed as follows. Human EG cells can be transfected with a construct containing the human hepatitis B virus core promoter/enhancer (SEQ ID NO:1) driving an activated H-RAS gene (SEQ ID NO:2) and also optionally containing an ecdysone inducible gene switch promoter (SEQ ID NO:3) driving a dominant negative H-RAS gene (SEQ ID NO:4) (Sandig et al., (1996) Gene Therapy 3, 1002-1009; Saez et al., (2000) Proc. Natl. Acad. Sci. 97, 14512-14517). The activated H-RAS can be transcribed after differentiation of the EG cells. Transformed hepatocytes can be isolated in soft agar, cloned, expanded and frozen. Cultures can be plated at low density then treated with ponasterone A to induce the dominant negative RAS and reverse transformation. Cells are expected to arrest growth at subconfluent densities. Their identity as hepatocytes can be confirmed by production of albumin, cyp1A and cyp3A.
ACTHep1-6 can be further characterized. Individual vials can be thawed and plated in Med3, 5% serum as described above. Cells can be expanded, then plated at a density of 10,000 cells per well in a 96 well plate. […] Cells are selected having the cuboidal appearance of hepatocytes with a prominent nucleus. […]

[3] abbreviates: Hay1, FGF replaced after withdrawal.

`Cc1c(N)nc([C@H](CC(N)=O)NC[C@H](N)C(N)=O)nc1C(=O)N[C@H](C(=O)N[C@H](C)[C@@H](O)[C@H](C)C(=O)N[C@H](C(=O)NCCC1=N[C@@H](c2nc(C(=O)NCCCCN=C(N)N)cs2)CS1)[C@@H](C)O)[C@@H](O[C@@H]1O[C@@H](CO)[C@@H](O)[C@H](O)[C@@H]1O[C@H]1O[C@H](CO)[C@@H](O)[C@H](OC(N)=O)[C@@H]1O)c1cnc[nH]1` [zeocin] registered an effective selection concentration in the assay on Hay1 [1] (Hay1, standard titration curve) of 75 µg/mL. Moreover, the “time until non-resistant cells are dead” value in the assay with Hay1 [1] (Hay1 transfected with pFrt/lac/Zeo, medium containing 75 μg/ml Zeocin) is reported as “about seven”.
For “human basic Fibroblast Growth Factor [FGF]”, the “effect on growth of removal of the factor from the medium” value (shortened to “effect on growth”) with Hay1 [2] is listed as “slight negative effect on growth”. In addition, the “effect on growth” value with Hay1 [2] (listed as bFGF) is “some effect on growth”. Further, in the assay with Hay1 [2] (Hay1, defined medium, FGF removed), the “effect on morphology of removal of the factor” value was “flatter and more spread out on the dish”. Moreover, in the assay on Oct 4 and Nanog (setting [3]), the “Nanog expression after replacement of FGF” value is given as “raise nanog” and the “Oct 4 expression after replacement of FGF” value was “returned Oct 4 expression to its former level”. Further, the “Oct 4 and Nanog expression after FGF withdrawal” value in the assay with Oct 4 and Nanog (Hay1, FGF withdrawn) is “dramatic reduction in expression”.
As to human Stem Cell Factor [SCF], the “effect on growth” value in the assay on Hay1 [2] is “some effect on growth”.
Take oncostatin M: the “effect on growth” value with Hay1 [2] was “completely arrested the growth”; with Hay1 [2] (listed as Onc M), “some effect on growth”. Besides, the “alkaline phosphatase status of cultures after removal of the factor” value in the assay with Hay1 [2] (Hay1, defined medium, factor removed) was “alkaline phosphatase negative within several days”.
Take `CC(C)CC[C@@H](O)[C@](C)(O)[C@H]1CC[C@@]2(O)C3=CC(=O)[C@@H]4C[C@@H](O)[C@@H](O)C[C@]4(C)[C@H]3CC[C@]12C` [ponasterone A]: the “growth of cells after addition of ponasterone A” value in the assay with ACTHep1-6 is “stop growing over the next 24 hours and arrest at subconfluent densities”.

Source of the values: US20060068496A1, “Differentiation of stem cells” (priority 2004, published 2006).
